In the NIST ThermoML archive (doi:10.1016/j.tca.2006.04.016):
Numbers after ± are expanded uncertainties.

Experiment: xn = mol fraction of the nth substance listed
Settings: 101 kPa, Liquid, Vibrating tube method

CN(C)CCCN [N,N-dimethyl-1,3-propanediamine] + O
mass density [kg/m3]
Settings | 283.15 K | 288.15 K | 293.15 K | 298.15 K | 303.15 K | 308.15 K | 313.15 K | 318.15 K
x2 = 0 | 825.96 ± 0.13 | 821.56 ± 0.14 | 817.14 ± 0.14 | 812.72 ± 0.14 | 808.28 ± 0.14 | 803.83 ± 0.15 | 799.38 ± 0.15 | 794.9 ± 0.15
x2 = 0.0403 | 829.01 ± 0.13 | 824.62 ± 0.14 | 820.21 ± 0.14 | 815.8 ± 0.14 | 811.37 ± 0.14 | 806.92 ± 0.14 | 802.47 ± 0.15 | 797.99 ± 0.15
x2 = 0.0811 | 832.1 ± 0.14 | 827.73 ± 0.14 | 823.33 ± 0.14 | 818.92 ± 0.14 | 814.5 ± 0.14 | 810.07 ± 0.15 | 805.61 ± 0.15 | 801.14 ± 0.15
x2 = 0.1198 | 835.2 ± 0.14 | 830.84 ± 0.14 | 826.46 ± 0.14 | 822.07 ± 0.15 | 817.65 ± 0.15 | 813.22 ± 0.15 | 808.78 ± 0.15 | 804.31 ± 0.15
x2 = 0.16 | 838.61 ± 0.15 | 834.27 ± 0.15 | 829.9 ± 0.15 | 825.51 ± 0.15 | 821.11 ± 0.15 | 816.69 ± 0.16 | 812.24 ± 0.16 | 807.78 ± 0.16
x2 = 0.1996 | 842.14 ± 0.15 | 837.81 ± 0.16 | 833.45 ± 0.16 | 829.08 ± 0.16 | 824.69 ± 0.16 | 820.27 ± 0.16 | 815.84 ± 0.16 | 811.38 ± 0.17
x2 = 0.2498 | 846.96 ± 0.17 | 842.65 ± 0.17 | 838.31 ± 0.17 | 833.95 ± 0.17 | 829.57 ± 0.17 | 825.17 ± 0.17 | 820.74 ± 0.17 | 816.29 ± 0.18
x2 = 0.2998 | 852.16 ± 0.18 | 847.87 ± 0.18 | 843.54 ± 0.18 | 839.2 ± 0.18 | 834.84 ± 0.19 | 830.45 ± 0.19 | 826.04 ± 0.19 | 821.59 ± 0.19
x2 = 0.3499 | 857.74 ± 0.2 | 853.47 ± 0.2 | 849.16 ± 0.2 | 844.84 ± 0.2 | 840.49 ± 0.2 | 836.11 ± 0.2 | 831.71 ± 0.2 | 827.27 ± 0.2
x2 = 0.3997 | 863.92 ± 0.22 | 859.67 ± 0.22 | 855.38 ± 0.22 | 851.07 ± 0.22 | 846.73 ± 0.22 | 842.37 ± 0.22 | 837.97 ± 0.22 | 833.54 ± 0.22
x2 = 0.4501 | 870.78 ± 0.24 | 866.55 ± 0.24 | 862.28 ± 0.24 | 857.98 ± 0.24 | 853.66 ± 0.24 | 849.3 ± 0.24 | 844.91 ± 0.24 | 840.49 ± 0.24
x2 = 0.4998 | 878.37 ± 0.26 | 874.15 ± 0.26 | 869.89 ± 0.26 | 865.61 ± 0.26 | 861.29 ± 0.26 | 856.94 ± 0.26 | 852.56 ± 0.26 | 848.14 ± 0.26
x2 = 0.5501 | 886.96 ± 0.28 | 882.76 ± 0.28 | 878.51 ± 0.28 | 874.24 ± 0.28 | 869.93 ± 0.28 | 865.59 ± 0.28 | 861.21 ± 0.28 | 856.79 ± 0.28
x2 = 0.5999 | 896.46 ± 0.3 | 892.27 ± 0.3 | 888.05 ± 0.3 | 883.78 ± 0.3 | 879.48 ± 0.3 | 875.14 ± 0.3 | 870.76 ± 0.3 | –
x2 = 0.6498 | 907.17 ± 0.32 | 902.99 ± 0.32 | 898.77 ± 0.32 | 894.51 ± 0.32 | 890.21 ± 0.32 | 885.88 ± 0.32 | 881.5 ± 0.32 | –
x2 = 0.7 | 919.35 ± 0.35 | 915.19 ± 0.35 | 910.98 ± 0.34 | 906.73 ± 0.34 | 902.43 ± 0.34 | 898.1 ± 0.34 | 893.72 ± 0.34 | –
x2 = 0.7499 | 932.79 ± 0.37 | 928.64 ± 0.37 | 924.44 ± 0.37 | 920.2 ± 0.37 | 915.92 ± 0.37 | 911.6 ± 0.36 | 907.23 ± 0.36 | –
x2 = 0.8 | 947.49 ± 0.4 | 943.36 ± 0.39 | 939.18 ± 0.39 | 934.96 ± 0.39 | 930.71 ± 0.39 | 926.42 ± 0.39 | 922.09 ± 0.39 | –
x2 = 0.84 | 959.97 ± 0.42 | 955.86 ± 0.41 | 951.72 ± 0.41 | 947.55 ± 0.41 | 943.35 ± 0.41 | 939.13 ± 0.41 | 934.86 ± 0.41 | –
x2 = 0.8799 | 972.18 ± 0.44 | 968.2 ± 0.44 | 964.2 ± 0.44 | 960.18 ± 0.43 | 956.14 ± 0.43 | 952.08 ± 0.43 | 947.99 ± 0.43 | –
x2 = 0.9 | 977.57 ± 0.45 | 973.8 ± 0.45 | 970 ± 0.45 | 966.18 ± 0.45 | 962.33 ± 0.44 | 958.45 ± 0.44 | 954.54 ± 0.44 | –
x2 = 0.92 | 981.9 ± 0.46 | 978.55 ± 0.46 | 975.13 ± 0.46 | 971.67 ± 0.46 | 968.16 ± 0.46 | 964.59 ± 0.45 | 960.96 ± 0.45 | –
x2 = 0.94 | 984.99 ± 0.47 | 982.31 ± 0.47 | 979.51 ± 0.47 | 976.61 ± 0.47 | 973.6 ± 0.47 | 970.49 ± 0.47 | 967.29 ± 0.46 | –
x2 = 0.9597 | 987.53 ± 0.48 | 985.64 ± 0.48 | 983.57 ± 0.48 | 981.34 ± 0.48 | 978.95 ± 0.48 | 976.4 ± 0.48 | 973.72 ± 0.48 | –
x2 = 0.975 | 990.28 ± 0.49 | 988.99 ± 0.49 | 987.47 ± 0.49 | 985.74 ± 0.49 | 983.82 ± 0.49 | 981.71 ± 0.49 | 979.42 ± 0.49 | –
x2 = 0.99 | 994.84 ± 0.5 | 994.04 ± 0.5 | 992.95 ± 0.5 | 991.63 ± 0.5 | 990.07 ± 0.5 | 988.31 ± 0.5 | 986.35 ± 0.5 | –
